Laboratory results from ChEMBL document CHEMBL3507680, “University of Dundee, Gates Library screen for HepG2 cell viability”.

Assay: Human HepG2 cell viability assay in 384 well format
Assay type: toxicity, cell-based
Parameters: dose 125 nL, time 70.5 hour; concentration not given beside the values
Conditions: HepG2 cells, read-out: Inhibition

Row | SMILES | cytotoxicity at 70.5 h [%]
1 | CC(C)(C)OC(=O)NCCC(=O)NCC(O)c1cccc(F)c1 (centres undefined) | -0.447
2 | CN(Cc1cccc(Cl)c1)C(=O)Cn1nc(-c2ccc(F)cc2)oc1=O | -2.8
3 | COc1cccc2c1OCC(CNC(=O)Cc1csc(C(C)=O)c1)C2 (centres undefined) | 14.4
4 | CN(C)S(=O)(=O)N1C[C@@H]2CN(Cc3ccoc3)CCO[C@@H]2C1 | -4.48
5 | Cc1ccc(Sc2ccc(N3CCC(C(=O)O)CC3)nn2)cc1 | 33.4
6 | CN(C)S(=O)(=O)N1CCOCC1CC(=O)NCCOc1ccccc1 (centres undefined) | -15.5
7 | CCOCC(=O)N1CCC(c2nccn2CC2CC2)CC1 | 1.15
8 | CC(=O)N1CCC(N2CCOC[C@H]2c2nc(-c3ccncc3)c[nH]2)CC1 | -0.136
9 | O=S(=O)(Nc1ccc(N2CCOCC2)cn1)c1cccc(F)c1 | -3.99
10 | CN1CC(=O)N(c2ccsc2)CC12CCN(Cc1cnn(C)c1)C2 (centres undefined) | -0.306
11 | Clc1ccc(CN2CCOC[C@H](Oc3cccnc3)C2)cc1 | -2.34
12 | OCc1cc2ccccc2nc1N1CCCCC1 | 31.2
13 | Cc1nc(C)c(C(C)NC(=O)NCCNc2cccc(F)c2C#N)s1 (centres undefined) | -8.61
14 | Cc1ccccc1OCC1CCCN(C(=O)Cc2c[nH]c(=O)[nH]c2=O)C1 (centres undefined) | -0.878
15 | CN(C)Cc1nn(C)c2c1CN(C(=O)Nc1ccc(F)cc1)C2 | -3.55
16 | Cn1c(C(=O)NC2CC2)nc2c1CCN(c1ncccn1)C2 | -4.38
17 | CCc1ncc(C(=O)N(CCOC)Cc2nccs2)cn1 | 5.06
18 | O=C(CCc1nc2cccnc2[nH]1)NCc1cccnc1 | 0.275
19 | Cc1nc(COCc2cnc3n2CCN(C(=O)C2CC2)C3C)cs1 (centres undefined) | 11.4
20 | Cc1cc(C)c2[nH]c(C(=O)NCCN3CCNC3=O)c(C)c2c1 | -5.43
21 | CCCN(Cc1nccn1C)C(=O)c1cnn[nH]1 | 7.26
22 | CCCc1nc(N2CCCCC2)c2c(n1)c(C)nn2CC | 15.4
23 | Cc1cccc(C2(CNC(=O)CCNS(C)(=O)=O)CCCC2)c1 | 27

Row | SMILES | cytotoxicity at 70.5 h [%]
24 | COCCNC(=O)c1ccc2ccc(N3CCN(CC4CC4)CC3)n2c1 | 24.5
25 | COc1c(CNCc2ccc(C(=O)N3CCCC3)cc2)c(C)nn1C | 10.8
26 | CSc1ccccc1C(=O)C1CCCN(Cc2ccccn2)C1 (centres undefined) | -2.76
27 | Cc1cc(C)nc(N2CCCC(C(=O)Nc3n[nH]c(C(C)C)n3)C2)n1 (centres undefined) | -7.23
28 | CCn1ccnc1CN1CCCN(C(=O)c2ccsc2)CC1 | -2.37
29 | O=C(Nc1ccc(F)cc1)N1CCC2(CCC(=O)N(C3CC3)C2)CC1 | -11.6
30 | COc1cccc(COCC(O)CN2CC(n3cccn3)C2)c1 (centres undefined) | -6.05
31 | CC(C)CCn1ccc(NC(=O)N2CCCC2CN2CCOCC2)n1 (centres undefined) | -7.64
32 | Cc1ccc(C2CSCCN2C(=O)c2ccoc2C)o1 (centres undefined) | -8.94
33 | Fc1ccc(C(CNc2ccncn2)N2CCCCC2)cc1 (centres undefined) | -13.6
34 | CC(=O)N1[C@H](Cn2cncn2)C[C@@H]2CN(Cc3ccccn3)CC[C@@H]21 | 17.3
35 | CC(C)c1nc(CNc2ccc(CNS(C)(=O)=O)cc2)cs1 | -8.66
36 | CCCNC(=O)C1CCCN(Cc2ccc(-n3cncn3)c(C)c2)C1 (centres undefined) | -1.68
37 | N#CC1(C(=O)N2CCCN(c3nccs3)CC2)CCCC1 | -11
38 | Cn1ccnc1CN1CCC(CNS(=O)(=O)c2cccnc2)C1 (centres undefined) | 7.54
39 | Cn1cc(CN2CCC3(CC2)CC(Nc2nccs2)CO3)cn1 (centres undefined) | 16.9
40 | CCc1ncc(C(=O)N(C)CCc2nc3cc(OC)ccc3[nH]2)cn1 | 11.2
41 | CC(=O)N1CCC2(CC1)C(=O)N(c1ccc(C)nc1)CCN2CC(C)C | -4.45
42 | CN(C)c1nc2c(c(=O)[nH]1)CCN(C(=O)c1ccc(=O)[nH]c1)C2 | -3.2
43 | O=C(Cc1ccccc1O)NC1CCCN(c2ccccc2F)C1=O (centres undefined) | -18.3
44 | c1c2c(nn1CC1CCOCC1)C(CNC1CCOCC1)OCC2 (centres undefined) | 7.06
45 | CC1CC(=O)c2cc(C(=O)N3CCOCC3)c(=O)[nH]c2C1 (centres undefined) | -0.268
46 | Cc1cc(C)n(CC2CCCN2C(=O)c2ccc(C(N)=O)cn2)n1 (centres undefined) | -1.95

Row | SMILES | cytotoxicity at 70.5 h [%]
47 | O=C(c1ccc(=O)[nH]n1)N(CCO)Cc1cc(Br)ccc1F | -5.4
48 | CCCC(O)CN1CCC(=O)N(Cc2ccccc2)Cc2ccccc21 (centres undefined) | 2.6
49 | COCCO[C@H]1CCN(C(=O)c2cccnc2)[C@H]1Cc1cnn(C)c1 | -96.2
50 | Cc1nnc(NCc2ccccc2Cl)c(C#N)c1C | -9.79
51 | CC(=O)N1CCN(CCNc2snc(Cl)c2C#N)CC1 | -5.16
52 | CS(=O)(=O)NCC1CCCN(C(=O)c2cccc(F)c2)C1 (centres undefined) | -6.44
53 | O=C(Cc1cccs1)N1CCOCC1CO (centres undefined) | -3.61
54 | Cc1ccc(O[C@@H]2C[C@H]3CN(C(=O)Cc4ccccn4)CCN3C2)cc1 | 17.9
55 | COc1ccccc1C(C)(C)NC(=O)c1cc(NC(C)=O)ccc1F | -6.53
56 | COC(=O)c1ccc(N(C(=O)c2ccncc2)C(C)C)c(C)c1 | -17.2
57 | CS(=O)(=O)CC1CCCN(c2ncnc3c2Cc2ccccc2OC3)C1 (centres undefined) | -9.52
58 | CN(C)CC1CN(Cc2coc(-c3cccs3)n2)CCO1 (centres undefined) | 1.06
59 | COc1ccc(C(=O)NCCCOC(C)c2ccccc2)c(OC)c1 (centres undefined) | -11.1
60 | N#CCCN(Cc1ccco1)C(=O)C1CCCc2ccccc21 (centres undefined) | -6.61
61 | COc1cc(OC)c(C2SCC(=O)Nc3n[nH]cc32)cc1OC (centres undefined) | -1.01
62 | CN1CCCC1c1cc2cccnc2n1Cc1ccc(F)cc1 (centres undefined) | -5.23
63 | CSCc1cc(F)ccc1CNC(=O)N1CCC[C@@H]1CO | -4.06
64 | O[C@@H]1CN(c2cnc3ccccc3n2)CC[C@H]1c1ccc2c(c1)OCO2 | 21
65 | Cc1nc(CN(C)C2CCN(Cc3ccc(Cl)s3)C2)no1 (centres undefined) | -4.8
66 | O=C(NC[C@H]1OC[C@@H](NCc2ccc(F)cc2)[C@@H]1O)N1CCOCC1 | -8.58
67 | Cn1ncc2c(=O)[nH]c(CN3CCCC3CC3CCCCC3)nc21 (centres undefined) | -9.61
68 | CNC(=O)c1cccc(CNC(=O)C2CC(=O)N(CCN(C)C)C2)c1 (centres undefined) | -5.17
69 | O=C(CCCc1nc2ccccc2[nH]1)N1CCCC1c1ccccn1 (centres undefined) | 0.793

Row | SMILES | cytotoxicity at 70.5 h [%]
70 | OC(CN1CCN(Cc2ccccc2)CC1)C1CC1 (centres undefined) | -10.4
71 | CCC(=O)N1C[C@@H](C(=O)NC)[C@H](c2ccnc(N3CCCC3)n2)C1 | -3.94
72 | Cn1cnnc1CNC(=O)C1CCCN(Cc2ccccc2)C1 (centres undefined) | 0.292
73 | O=C(NCCN1CCCCC1CO)c1cc(-c2ccccc2)on1 (centres undefined) | -4.82
74 | O=C1N(c2ccccc2)Cc2nc(=O)[nH]n21 | -27.8
75 | CC(CNC(=O)c1cccnc1)Oc1ccc(F)cc1 (centres undefined) | 8.38
76 | Cc1ccccc1-n1ccnc1S(=O)(=O)Cc1nsc(N(C)C)n1 | -11
77 | Cn1c(NCCN2CCCCCC2)c(C#N)c(=O)n(C)c1=O | -7.25
78 | COc1cccc(N2CCN(Cc3ccc4occc4c3)CC2=O)c1 | -12.9
79 | CC(=O)N1CCC(c2cncc(Oc3ccccc3)n2)CC1 | -2.89
80 | COc1cccc(F)c1-c1nc2c([nH]1)c(C1CC1)nn2C | 10.5
81 | CNS(=O)(=O)CC1CCCN1C(=O)c1ccc2cc[nH]c2c1 (centres undefined) | -7.71
82 | COCC(C)NS(=O)(=O)c1ccc(Br)cn1 (centres undefined) | -11.1
83 | CCOCCC(=O)Nc1cccc(Oc2ccccn2)c1 | 23.9
84 | Cc1cc(-c2cnc(NC3CCCCC3)nc2-c2ccco2)on1 | -9.46
85 | Cn1cc(C[C@H]2[C@H](O)CCN2Cc2ccc(F)cc2)cn1 | 4.14
86 | CCC(CC)n1nc(C)cc1NC(=O)C1CCCO1 (centres undefined) | -8.67
87 | CC(C)(NCCOc1ccc(CC#N)cc1)c1nccs1 | -2.87
88 | COc1cn(CC(=O)N2CCN(c3ccc(Cl)cc3)CC2)c(C)cc1=O | 23.5
89 | CSc1ncc(C(=O)N2C[C@H]3CC[C@@H]2CN(Cc2ccccc2)C3)cn1 | -1.13
90 | Cc1ncc(C(=O)N2C[C@H]3CC[C@@H]2CN(S(=O)(=O)N(C)C)C3)c(C)n1 | -11.5
91 | Cn1cccc1C(=O)NCc1cnc2n1CCN(C(N)=O)CC2 | -4.35
92 | O=C1NCCCCC1Sc1ccc(F)cc1F (centres undefined) | 7.77

Row | SMILES | cytotoxicity at 70.5 h [%]
93 | Cc1cc(N(C)C)nc(C2(C)CCCN2C(=O)c2ccccc2)n1 (centres undefined) | -8.94
94 | CSc1ncn(-c2nc(N(C)C)nc(N(C)C)n2)n1 | 36.4
95 | Cc1cnn(CC(C)NCc2csc(-c3cnn(C)c3)n2)c1 (centres undefined) | 51.9
96 | O=C1NC2(CCN(Cc3ccc(F)cc3)CC2)CC1c1ccncc1 (centres undefined) | -8.27
97 | N#CC(NC(=O)CCCOc1cccnc1)c1ccc(F)cc1F (centres undefined) | 6.82
98 | Cc1c(C(=O)N[C@H]2CN(CCS(C)(=O)=O)C[C@@H]2C2CC2)cnn1C | -5.86
99 | COCCO[C@H]1CCN(c2ccc(C)nn2)[C@H]1Cc1cccnc1 | 12.5
100 | CC(C)CN(C(=O)Nc1cccnc1)C1CC1 | -7.03
101 | COc1ccc2c(ccn2CC(=O)Nc2n[nH]c(C(C)C)n2)c1 | -12.1
102 | COC(=O)c1ncccc1N1CCN(C(=O)CN2CCOCC2)CC1 | 29.5
103 | c1cn2c(n1)CN(CC1CC1)CC(CN1CCOCC1)C2 (centres undefined) | -7.21
104 | Cc1cnc(N2CCC3(CC2)CC3CN(C)Cc2cccnc2)nc1 (centres undefined) | 2.52
105 | COc1ccc(CN2CCc3c(nc(-c4ccccn4)[nH]c3=O)C2)cc1 | 13.1
106 | CCn1nc(C)c(NC(=O)c2cc(NC(=O)C3CC3)n(C)n2)c1C | -5.29
107 | Cc1cc(C[C@@H]2COC[C@H]2NCc2ccccc2C(F)(F)F)on1 | -11
108 | Cc1sc2nc(C(F)(F)F)nc(N3CCCN(C)CC3)c2c1C | 22.1
109 | COCCNc1nc2c(c(NCC3CCOC3)n1)CCNCC2 (centres undefined) | -0.779
110 | COc1cc(CN2CCCCCC2c2cccs2)cc(OC)c1O (centres undefined) | -2.15
111 | CN1CCC(c2cc(CCO)ncn2)C1 (centres undefined) | 1.56
112 | Cn1cnnc1CN1CCC2(CCCN(C3CCCCC3)C2=O)C1 (centres undefined) | -1.45
113 | CCN(Cc1ccoc1)C(C(N)=O)c1cccc(Br)c1 (centres undefined) | -7.25
114 | CCOCC(O)CN1CCN(C(=O)Cc2ccc3c(c2)CCO3)CC1 (centres undefined) | 0.715
